According to patent US7998988B2, “Biphenyl compounds useful in the treatment or prevention of cardiovascular disorders” (Bayer Schering Pharma Aktiengellschaft, priority 2005, dated 2011):

Experiments:
saphenous artery rings = experiment: Vasorelaxant effect in vitro (phenylephrine-contracted artery rings); type: cell-based; conditions: rabbit saphenous artery rings, contraction induced by phenylephrine
Protocol: Rabbits are anesthetized and sacrificed by intravenous injection of thiopental sodium (about 50 mg/kg) and exsanguinated. The saphenous artery is removed and divided into rings 3 mm wide. The rings are mounted singly on in each case a pair of triangular hooks open at the end and made of 0.3 mm-thick special wire (Remanium®). Each ring is placed under an initial tension in 5 ml organ baths with Krebs-Henseleit solution which is at 37° C., is gassed with 95% 02/5% CO2 and has the following composition: NaCl 119 mM; KCl 4.8 mM; CaCl2×2H2O 1 mM; MgSO4×7 H2O 1.4 mM; KH2PO4 1.2 mM; NaHCO3 25 mM; glucose 10 mM; bovine serum albumin 0.001%. The force of contraction is detected with Statham UC2 cells, amplified and digitized via A/D converters (DAS-1802 HC, Keithley Instruments, Munich) and recorded in parallel on chart recorders. Contractions are induced by addition of phenylephrine.
After several (generally 4) control cycles, the substance to be investigated is added in each further run in increasing dosage, and the height of the contraction achieved under the influence of the test substance is compared with the height of the contraction reached in the last preceding run. The concentration necessary to reduce the contraction reached in the preceding control by 50% is calculated from this (IC50). The standard application volume is 5 μl. The proportion of DMSO in the bath solution corresponds to 0.1%.

[1] = biological target: T1, heme-containing recombinant soluble guanylate cyclase (sGC) (Rattus norvegicus, UniProt P20595); experiment: Stimulation of recombinant soluble guanylate cyclase (sGC) in vitro, heme-containing; type: biochemical
T1 construct: made in house
T1 sequence (P20595 1-619): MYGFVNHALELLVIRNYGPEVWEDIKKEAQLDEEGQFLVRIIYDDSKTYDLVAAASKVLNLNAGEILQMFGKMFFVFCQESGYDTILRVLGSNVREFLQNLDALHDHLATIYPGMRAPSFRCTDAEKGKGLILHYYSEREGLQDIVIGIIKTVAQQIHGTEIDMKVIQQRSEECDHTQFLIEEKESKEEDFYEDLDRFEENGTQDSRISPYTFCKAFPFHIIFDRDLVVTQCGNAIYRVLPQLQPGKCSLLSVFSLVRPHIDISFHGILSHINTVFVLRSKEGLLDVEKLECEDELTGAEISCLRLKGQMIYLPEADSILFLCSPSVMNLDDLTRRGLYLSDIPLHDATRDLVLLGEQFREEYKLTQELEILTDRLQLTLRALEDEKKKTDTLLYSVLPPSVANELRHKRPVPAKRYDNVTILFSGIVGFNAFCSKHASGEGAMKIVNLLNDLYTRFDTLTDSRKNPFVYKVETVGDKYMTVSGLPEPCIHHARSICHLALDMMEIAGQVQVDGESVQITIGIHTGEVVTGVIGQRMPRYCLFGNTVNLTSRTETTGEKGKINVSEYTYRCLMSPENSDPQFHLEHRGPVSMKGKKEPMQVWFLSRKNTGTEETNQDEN
T1 sequence (P19686 1-690 partner): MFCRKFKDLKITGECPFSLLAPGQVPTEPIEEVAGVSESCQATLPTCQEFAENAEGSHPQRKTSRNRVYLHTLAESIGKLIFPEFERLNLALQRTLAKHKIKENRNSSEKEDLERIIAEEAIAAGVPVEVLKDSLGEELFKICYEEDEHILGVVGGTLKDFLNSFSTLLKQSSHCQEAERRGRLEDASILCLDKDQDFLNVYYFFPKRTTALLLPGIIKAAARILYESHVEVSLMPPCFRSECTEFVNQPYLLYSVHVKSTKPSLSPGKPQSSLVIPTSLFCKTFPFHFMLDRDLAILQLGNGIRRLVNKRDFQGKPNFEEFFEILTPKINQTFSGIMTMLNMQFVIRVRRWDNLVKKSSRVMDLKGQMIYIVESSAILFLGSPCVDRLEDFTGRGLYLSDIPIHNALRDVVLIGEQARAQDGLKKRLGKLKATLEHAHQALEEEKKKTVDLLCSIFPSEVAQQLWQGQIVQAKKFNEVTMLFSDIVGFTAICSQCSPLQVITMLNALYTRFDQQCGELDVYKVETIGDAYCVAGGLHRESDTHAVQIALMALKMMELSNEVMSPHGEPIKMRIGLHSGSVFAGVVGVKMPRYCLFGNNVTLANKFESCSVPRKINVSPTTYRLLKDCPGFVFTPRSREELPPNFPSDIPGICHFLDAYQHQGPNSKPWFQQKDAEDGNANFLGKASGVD
From the text: Hoenicka, E. M. Becker, H. Apeler, T. Sirichoke, H. Schroeder, R. Gerzer and J.-P. Stasch, “Purified soluble guanylyl cyclase expressed in a baculovirus/Sf9 system: Stimulation by YC-1, nitric oxide, and carbon oxide”, J. Mol. Med. 77 (1999), 14-23. The heme-free guanylate cyclase is obtained by adding Tween 20 to the sample buffer (0.5% in the final concentration).
(§1) The activation of sGC by a test substance is reported as n-fold stimulation of the basal activity.

[2] = biological target: T2, heme-free recombinant soluble guanylate cyclase (sGC) (Rattus norvegicus, UniProt P20595); experiment: Stimulation of recombinant soluble guanylate cyclase (sGC) in vitro, heme-free; type: biochemical; conditions: heme-free sGC (Tween 20)
T2 construct: made in house
T2 sequence (P20595 1-619): T1 sequence (P20595 1-619)
T2 sequence (P19686 1-690 partner): T1 sequence (P19686 1-690 partner)
Protocol: Investigations on the stimulation of recombinant soluble guanylate cyclase (sGC) by the compounds according to the invention with and without sodium nitroprusside, and with and without the heme-dependent sGC inhibitor 1H-1,2,4-oxadiazole-(4,3a)-quinoxalin-1-one (ODQ) are carried out by the method described in detail in the following reference: M. Hoenicka, E. M. Becker, H. Apeler, T. Sirichoke, H. Schroeder, R. Gerzer and J.-P. Stasch, “Purified soluble guanylyl cyclase expressed in a baculovirus/Sf9 system: Stimulation by YC-1, nitric oxide, and […]”, J. Mol. Med. 77 (1999), 14-23. The heme-free guanylate cyclase is obtained by adding Tween 20 to the sample buffer (0.5% in the final concentration).
as §1

Structure (SMILES): O=C(O)c1ccc(CCC(/C=C/c2ccccc2OCc2ccc(-c3ccc(C(F)(F)F)cc3)cc2)Cc2ccc(-c3noc(=O)[nH]3)cc2)cc1 (single isomer, unassigned) [Example 55, E-4-{3-[4-(5-Oxo-4,5-dihydro-[1,2,4]oxadiazol-3-yl)benzyl]-5-[2-(4′-trifluoromethylbiphenyl-4-ylmethoxy)phenyl]pent-4-enyl}benzoic acid]
- IC50 (saphenous artery rings): 146 nM
- Stimulation (n-fold) of sGC, +0.01 μM DEA/NO ([1]; 0.001 μM test substance): 10.6 n-fold
- Stimulation (n-fold) of sGC, +0.01 μM DEA/NO ([1]; 0.01 μM test substance): 13.0 n-fold
- Stimulation (n-fold) of sGC, +0.01 μM DEA/NO ([1]; 0.1 μM test substance): 25.5 n-fold
- Stimulation (n-fold) of sGC, +0.01 μM DEA/NO ([1]; 1 μM test substance): 35.4 n-fold
- Stimulation (n-fold) of sGC, +0.01 μM DEA/NO ([1]; 10 μM test substance): 42.5 n-fold
- Stimulation (n-fold) of sGC, +0.1 μM DEA/NO ([1]; 0.001 μM test substance): 50.3 n-fold
- Stimulation (n-fold) of sGC, +0.1 μM DEA/NO ([1]; 0.01 μM test substance): 53.4 n-fold
- Stimulation (n-fold) of sGC, +0.1 μM DEA/NO ([1]; 0.1 μM test substance): 66.5 n-fold
- Stimulation (n-fold) of sGC, +0.1 μM DEA/NO ([1]; 1 μM test substance): 75.1 n-fold
- Stimulation (n-fold) of sGC, +0.1 μM DEA/NO ([1]; 10 μM test substance): 81.5 n-fold
- Stimulation (n-fold) of sGC, +10 μM ODQ ([1]; 0.01 μM test substance): 12.7 n-fold
- Stimulation (n-fold) of sGC, +10 μM ODQ ([1]; 0.1 μM test substance): 66.3 n-fold
- Stimulation (n-fold) of sGC, +10 μM ODQ ([1]; 1 μM test substance): 107.4 n-fold
- Stimulation (n-fold) of sGC, +10 μM ODQ ([1]; 10 μM test substance): 105.5 n-fold
- Stimulation (n-fold) of sGC, Basal ([1]; 0.001 μM test substance): 1.4 n-fold
- Stimulation (n-fold) of sGC, Basal ([1]; 0.01 μM test substance): 3.1 n-fold
- Stimulation (n-fold) of sGC, Basal ([1]; 0.1 μM test substance): 15.5 n-fold
- Stimulation (n-fold) of sGC, Basal ([1]; 1 μM test substance): 25.4 n-fold
- Stimulation (n-fold) of sGC, Basal ([1]; 10 μM test substance): 33.0 n-fold
- Synergism with the NO donor DEA/NO on sGC stimulation ([1]; combination with DEA/NO): no synergistic effect
- Stimulation (n-fold) of heme-free sGC, Basal ([2]; 0.001 μM test substance): 3.7 n-fold
- Stimulation (n-fold) of heme-free sGC, Basal ([2]; 0.01 μM test substance): 24.0 n-fold
- Stimulation (n-fold) of heme-free sGC, Basal ([2]; 0.1 μM test substance): 98.1 n-fold
- Stimulation (n-fold) of heme-free sGC, Basal ([2]; 1 μM test substance): 132.6 n-fold
- Stimulation (n-fold) of heme-free sGC, Basal ([2]; 10 μM test substance): 137.9 n-fold
